Measured values as given in US20240025863A1, “SOS1 PROTEIN DEGRADERS, PHARMACEUTICAL COMPOSITIONS THEREOF, AND THEIR THERAPEUTIC APPLICATIONS” (BioTheryX, Inc., priority 2020, published 2024).
pIC50: −log10 of the molar value. Like-named read-outs stand apart in the source and are kept apart here. Each block holds one compound with its values, some of them ahead of it.

Assays:
Assay type in all cases: cell-based
[1] = tested on: H358 cells (G12C); assay: Cell viability assay (CellTiter-Glo), H358 cells; details: Homo sapiens, NCI-H358, 72 h, read-out: Inhibition of Cancerous Cells IC50 H358 (G12C)
Summary of the method: (§1)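 Luminescence readout (CellTiter-Glo, 10 min with shaking) after 3-day compound or DMSO exposure at 37 °C. H358/SW48 in RPMI 1640, Lovo/SW480 in DMEM, assay medium with 2.5% FBS; Lovo seeded at 4,000 or 1,000 cells/well versus 2,000 or 500 for others.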

[2] = tested on: SW480 cells (G12V); assay: Cell viability assay (CellTiter-Glo), SW480 cells; details: Homo sapiens, read-out: Inhibition of Cancerous Cells IC50 SW480 (G12V)
Summary of the method: as §1

[3] = tested on: Lovo cells (G13D); assay: Cell viability assay (CellTiter-Glo), Lovo cells; details: Homo sapiens, 72 h, read-out: Inhibition of Cancerous Cells IC50 Lovo (G13D)
Summary of the method: as §1

[4] = tested on: H23 cells; assay: Cell viability assay (CellTiter-Glo), H23 cells; details: Homo sapiens, NCI-H23, 72 h, read-out: Inhibition of Cancerous Cells IC50 H23
Protocol: H358, H23, SW48, and AsPC-1 cells were cultured in RPMI 1640 media supplemented with 10% fetal bovine serum, streptomycin, and penicillin. Lovo and SW480 cells were cultured in DMEM media supplemented with 10% fetal bovine serum, streptomycin, and penicillin. The cell lines were plated in their respective medium supplemented with 2.5% fetal bovine serum, streptomycin, and penicillin. All cell lines were plated in white walled 96-well plates at 2,000 cells/well or 384-well plates at 500 cells/well, except Lovo, which were plated at 4,000 or 1,000 cells/well, respectively. The cells were incubated in DMSO (control) or a compound for 3 days at 37° C. under 5% CO2. A CELLTITER-GLO® reagent (100 μL) was then added to each well. After a 10 min incubation with shaking, luminescence was measured using an ENVISION® multimode plate reader.

[5] = tested on: SW48 cells (wt); assay: Cell viability assay (CellTiter-Glo), SW48 cells; details: Homo sapiens, read-out: Inhibition of Cancerous Cells IC50 SW48 (wt)
Summary of the method: as §1

[6] = tested on: Molm-13 cells; assay: Inhibition of Molm-13 cells; details: Homo sapiens; for inhibition at 1 µM: compound 1 μM, read-out: Inhibition of Molm-13 Cells, percentage of inhibition at 1 μM; for inhibition at 10 µM: compound 10 μM, read-out: Inhibition of Molm-13 Cells, percentage of inhibition at 10 μM
[7] = H358 cells, 3 days incubation, CellTiter-Glo luminescence
[8] = 72 h, SW480 cells, 3 days incubation, CellTiter-Glo luminescence
[9] = Lovo cells, 3 days incubation, CellTiter-Glo luminescence
[10] = H23 cells, 3 days incubation, CellTiter-Glo luminescence
[11] = 72 h, SW48 cells, 3 days incubation, CellTiter-Glo luminescence

Structure (SMILES): COc1cc2c(N[C@H](C)c3cccc(Br)c3)nc(C)nc2cc1OCCCCCCCN1CCC(c2cc(F)cc3c2CN(C2CCC(=O)NC2=O)C3=O)CC1 (stereo partly drawn) [Compound A1, 3-(4-(1-(7-((4-(((R)-1-(3-bromophenyl)ethyl)amino)-6-methoxy-2-methylquinazolin-7-yl)oxy)heptyl)piperidin-4-yl)-6-fluoro-1-oxoisoindolin-2-yl)piperidine-2,6-dione]
- pIC50 [1]: 5.55
- pIC50 ([2]; SW480, 72 h): 6.24
- pIC50 ([3]; LoVo): 6.03
- pIC50 [4]: 5.92
- pIC50 ([5]; SW48, 72 h): 6.15

Structure (SMILES): COc1cc2c(N[C@H](C)c3cccc(Br)c3)nc(C)nc2cc1OCCCN1CCC(c2cc(F)cc3c2CN(C2CCC(=O)NC2=O)C3=O)CC1 (stereo partly drawn) [Compound A10, 3-(4-(1-(3-((4-(((R)-1-(3-Bromophenyl)ethyl)amino)-6-methoxy-2-methyl-quinazolin-7-yl)oxy)propyl)piperidin-4-yl)-6-fluoro-1-oxoisoindolin-2-yl)piperidine-2,6-dione]
- inhibition at 1 µM [6]: 22%
- inhibition at 10 µM [6]: 99%

Structure (SMILES): COc1cc2c(N[C@H](C)c3cccs3)nc(C)nc2cc1OCCCCCCCCC(=O)N[C@H](C(=O)N1C[C@H](O)C[C@H]1C(=O)NCc1ccc(-c2scnc2C)cc1)C(C)(C)C [Compound D5, (2S,4R)-4-Hydroxy-1-((S)-2-(9-((6-methoxy-2-methyl-4-(((R)-1-(thiophen-2-yl)ethyl)amino)quinazolin-7-yl)oxy)nonanamido)-3,3-dimethylbutanoyl)-N-(4-(4-methylthiazol-5-yl)benzyl)pyrrolidine-2-carboxamide]
- inhibition at 1 µM [6]: 22%
- inhibition at 10 µM [6]: 99%

Structure (SMILES): COc1cc2nc(C)nc(N[C@H](C)c3cccc(Br)c3)c2cc1OC [drawing 284, reference compound]
- pIC50 [1, 7]: 5.39
- pIC50 [2, 8]: 5.55
- pIC50 [3, 9]: 5.66
- pIC50 [4, 10]: 5.32
- pIC50 [5, 11]: 5.44

Structure (SMILES): COc1cc2nc(C)nc(N[C@H](C)c3cccc(Br)c3)c2cc1OC [drawing 287]
- inhibition at 1 µM [6]: 17%
- inhibition at 10 µM [6]: 91%

Structure (SMILES): CNCc1ccccc1-c1csc([C@@H](C)Nc2nc(C)nc3cc(OC)c(OC)cc23)c1 [reference compound]
- pIC50 [1, 7]: 5.68
- pIC50 [4, 10]: 5.82

Structure (SMILES): CNCc1ccccc1-c1csc([C@H](C)Nc2nc(C)nc3cc(OC)c(OC)cc23)c1 [reference compound]
- pIC50 [1, 7]: 5.62
- pIC50 [4, 10]: 5.64

Further lines, with some results ahead:

- pIC50 [1, 7]: < 5.00
- pIC50 [2, 8]: < 5.00
- pIC50 [3, 9]: 5.18
- pIC50 [5, 11]: < 5.00
Structure (SMILES): CCOc1cc(C(C)(C)C)ccc1C1=N[C@@](C)(c2ccc(Cl)cc2)[C@@](C)(c2ccc(Cl)cc2)N1C(=O)N1CCN(CCC(=O)NCCCCCCCCCOc2cc3nc(C)nc(N[C@H](C)c4cccc(Br)c4)c3cc2OC)CC1 [Compound C7, N-(9-((4-(((R)-1-(3-Bromophenyl)ethyl)amino)-6-methoxy-2-methylquinazolin-7-yl)oxy)nonyl)-3-(4-((4S,5R)-2-(4-(tert-butyl)-2-ethoxyphenyl)-4,5-bis(4-chlorophenyl)-4,5-dimethyl-4,5-dihydro-1H-imidazole-1-carbonyl)piperazin-1-yl)propanamide]
- pIC50 [4, 10]: < 5.00

- pIC50 [1, 7]: 5.55
- pIC50 [2, 8]: 5.85
- pIC50 [3, 9]: 6.27
- pIC50 [5, 11]: 5.96
Structure (SMILES): CCOc1cc(C(C)(C)C)ccc1C1=N[C@@](C)(c2ccc(Cl)cc2)[C@@](C)(c2ccc(Cl)cc2)N1C(=O)N1CCN(CCC(=O)NCCCCCOc2cc3nc(C)nc(N[C@H](C)c4cccc(Br)c4)c3cc2OC)CC1 [Compound C8, N-(5-((4-(((R)-1-(3-Bromophenyl)ethyl)amino)-6-methoxy-2-methylquinazolin-7-yl)oxy)pentyl)-3-(4-((4S,5R)-2-(4-(tert-butyl)-2-ethoxyphenyl)-4,5-bis(4-chlorophenyl)-4,5-dimethyl-4,5-dihydro-1H-imidazole-1-carbonyl)piperazin-1-yl)propanamide]
- pIC50 [4, 10]: < 5.00

- pIC50 [1, 7]: 6.01
Structure (SMILES): CNCc1ccccc1-c1csc([C@@H](C)Nc2nc(C)nc3cc(OCCCCCCCCC(=O)N[C@H](C(=O)N4C[C@H](O)C[C@H]4C(=O)NCc4ccc(-c5scnc5C)cc4)C(C)(C)C)c(OC)cc23)c1 [Compound D9, (2S,4R)-4-hydroxy-1-((S)-2-(9-((6-methoxy-2-methyl-4-(((R)-1-(4-(2-((methylamino)methyl)phenyl)thiophen-2-yl)ethyl)amino)quinazolin-7-yl)oxy)nonanamido)-3,3-dimethylbutanoyl)-N-(4-(4-methylthiazol-5-yl)benzyl)pyrrolidine-2-carboxamide]
- pIC50 [4, 10]: 6.00

- pIC50 [1, 7]: 6.12
Structure (SMILES): CNCc1ccccc1-c1csc([C@H](C)Nc2nc(C)nc3cc(OCCCCCCCCC(=O)N[C@H](C(=O)N4C[C@H](O)C[C@H]4C(=O)NCc4ccc(-c5scnc5C)cc4)C(C)(C)C)c(OC)cc23)c1 [Compound D10, (2S,4R)-4-hydroxy-1-((S)-2-(9-((6-methoxy-2-methyl-4-(((S)-1-(4-(2-((methylamino)methyl)phenyl)thiophen-2-yl)ethyl)amino)quinazolin-7-yl)oxy)nonanamido)-3,3-dimethylbutanoyl)-N-(4-(4-methylthiazol-5-yl)benzyl)pyrrolidine-2-carboxamide]
- pIC50 [4, 10]: 6.03
